Experimental data from ChEMBL document CHEMBL1126863 (J Med Chem, 1993).
One block for each molecule: values may come before it. Square brackets hold non-standard residues; d marks the D form. Peptide text beside a SMILES is read from it. pGlu = O=C1CC[C@@H](C(=O)O)N1

Assays:
Substance-P receptor [1] = target: T1, Substance-P receptor (Cavia porcellus, UniProt P30547); assay: Evaluated for the binding affinity towards NK1 receptor in the striatal membranes of guinea pig; format: cell membranes, Striatum, Membrane
T1 sequence (P30547 whole entry): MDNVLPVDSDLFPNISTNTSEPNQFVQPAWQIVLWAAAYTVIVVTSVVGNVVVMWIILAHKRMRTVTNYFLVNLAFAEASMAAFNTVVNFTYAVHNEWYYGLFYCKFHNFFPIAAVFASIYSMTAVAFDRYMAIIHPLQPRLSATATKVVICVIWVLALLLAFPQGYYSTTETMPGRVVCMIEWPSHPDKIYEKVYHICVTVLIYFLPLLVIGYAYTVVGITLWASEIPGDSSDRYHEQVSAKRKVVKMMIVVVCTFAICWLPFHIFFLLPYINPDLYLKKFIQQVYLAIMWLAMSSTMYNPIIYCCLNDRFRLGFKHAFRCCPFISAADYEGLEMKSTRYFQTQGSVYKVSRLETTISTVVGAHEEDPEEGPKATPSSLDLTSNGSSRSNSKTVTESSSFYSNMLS

[2] = target: Substance-P receptor (Cavia porcellus) (UniProt P30547); details: Striatum, Membrane, 10 uM
Target sequence in this assay (P30547 whole entry): as above
Description: Evaluated for the binding affinity towards NK1 receptor in the striatal membranes of guinea pig at 10 uM

Substance-P receptor [3] = target: T1, Substance-P receptor; assay: Evaluated for the binding affinity against NK1 receptor
[4] = target: Substance-P receptor (Cavia porcellus) (UniProt P30547); assay: Evaluated for the binding affinity against NK1 receptor at 1 uM
Target sequence in this assay (P30547 whole entry, looked up): as the sequence (P30547 whole entry) above

[5] = target: Substance-P receptor (Cavia porcellus) (UniProt P30547); assay: Evaluated for the binding affinity against NK1 receptor
Target sequence in this assay (P30547 whole entry, looked up): as the sequence (P30547 whole entry) above

Compound: [3H]c1cc([3H])cc([C@@H]2NCCC[C@@H]2NCc2ccccc2OC)c1
Kd (Substance-P receptor [1]): 0.32 nM

Compound: COc1ccccc1CN[C@@H]1CCCN[C@@H]1c1ccccc1
inhibition [2]: 50%

Compound: CC(C)C[C@H](NC(=O)CN(C)C(=O)[C@H](Cc1ccccc1)NC(=O)[C@H](Cc1ccccc1)NC(=O)[C@H](CCC(N)=O)NC(=O)[C@H](CCC(N)=O)NC(=O)[C@@H]1CCCN1C(=O)[C@H](CCCCN)NC(=O)[C@@H]1CCCN1C(=O)[C@@H](N)CCCNC(=N)N)C(=O)N[C@@H](CCS(C)(=O)=O)C(N)=O
Ki (Substance-P receptor [3]): 20 nM

Compound: CSCC[C@H](NC(=O)[C@H](CC(C)C)NC(=O)CNC(=O)[C@@H](NC(=O)[C@H](Cc1ccccc1)NC(=O)[C@H](CO)NC(=O)[C@H](CC(=O)O)NC(=O)[C@@H](NC(=O)[C@H](CCCCN)NC(=O)[C@@H](N)Cc1cnc[nH]1)[C@@H](C)O)C(C)C)C(N)=O [NEUROKININ A]
Ki [5]: 3700 nM

Second part, the molecule after the results:

Ki (Substance-P receptor [1]): 0.17 nM
Compound: COc1ccccc1CN[C@H]1CCCN[C@H]1c1ccccc1 (stereo in doubt; 5) [CP-99994]

Ki (Substance-P receptor [1]): 0.27 nM
Compound: COc1ccccc1CN[C@H]1CCCN[C@H]1c1ccccc1 (stereo in doubt; 6b) [CP-99994]

inhibition [4]: 15%
Compound: CC[C@H](C)[C@H](NC(=O)[C@H](Cc1ccccc1)NC(=O)[C@H](C)NC(=O)[C@H](CC(=O)O)NC(=O)[C@H](CCCCN)NC(=O)[C@H](CO)NC(=O)[C@@H]1CCCN1C(=O)[C@@H]1CCC(=O)N1)C(=O)NCC(=O)N[C@@H](CC(C)C)C(=O)N[C@@H](CCSC)C(N)=O ([pGlu]PSKDAFIGLM-NH2)
